From the kinase profiling compilation of Christmann-Franck et al. (2016)

Experiments:
Experiment in all cases: KINOMEscan competition binding
Conditions in all cases: compound 10.0 µM
ACVR2B (human) = ACVR2B (human) (UniProt Q13705)
AKT2 (human) = AKT2 (human) (UniProt P31751)
AKT3 (human) = AKT3 (human) (UniProt Q9Y243)
BTK (human) = BTK (human) (UniProt Q06187)
CASK (human) = CASK (human) (UniProt O14936)
CDK15 (human) = CDK15 (human) (UniProt Q96Q40)
CDKL5 (human) = CDKL5 (human) (UniProt O76039)
CSK (human) = CSK (human) (UniProt P41240)
CSNK1D (human) = CSNK1D (human) (UniProt P48730)
DMPK (human) = DMPK (human) (UniProt Q09013)
EGFR (human) = EGFR (human) (UniProt P00533)
EPHA5 (human) = EPHA5 (human) (UniProt P54756)
FGFR1 (human) = FGFR1 (human) (UniProt P11362)
[1] = test system: FGFR3 (human), P22607 [G697C]
FYN (human) = FYN (human) (UniProt P06241)
IKBKE (human) = IKBKE (human) (UniProt Q14164)
IRAK3 (human) = IRAK3 (human) (UniProt Q9Y616)
[2] = target: JAK3 JH1 catalytic (human) (UniProt P52333)
KIT (human) = KIT (human) (UniProt P10721)
LIMK1 (human) = LIMK1 (human) (UniProt P53667)
MAP2K5 (human) = MAP2K5 (human) (UniProt Q13163)
MAPK15 (human) = MAPK15 (human) (UniProt Q8TD08)
MINK1 (human) = MINK1 (human) (UniProt Q8N4C8)
MYO3B (human) = MYO3B (human) (UniProt Q8WXR4)
PAK2 (human) = PAK2 (human) (UniProt Q13177)
PIK3C2B (human) = PIK3C2B (human) (UniProt O00750)
[3] = test system: PIK3CA (human), P42336 [M1043I]
PIP4K2C (human) = PIP4K2C (human) (UniProt Q8TBX8)
PKN2 (human) = PKN2 (human) (UniProt Q16513)
PRKACB (human) = PRKACB (human) (UniProt P22694)
PTK6 (human) = PTK6 (human) (UniProt Q13882)
RPS6KA4 KD2 (human) = RPS6KA4 KD2 (human) (UniProt O75676)
RPS6KA6 KD1 (human) = RPS6KA6 KD1 (human) (UniProt Q9UK32)
SRMS (human) = SRMS (human) (UniProt Q9H3Y6)
TLK1 (human) = TLK1 (human) (UniProt Q9UKI8)
TNK1 (human) = TNK1 (human) (UniProt Q13470)
TNNI3K (human) = TNNI3K (human) (UniProt Q59H18)
VRK2 (human) = VRK2 (human) (UniProt Q86Y07)
WEE2 (human) = WEE2 (human) (UniProt P0C1S8)
ZAP70 (human) = ZAP70 (human) (UniProt P43403)

PKN2 (human), sequence (Q16513 whole entry, looked up): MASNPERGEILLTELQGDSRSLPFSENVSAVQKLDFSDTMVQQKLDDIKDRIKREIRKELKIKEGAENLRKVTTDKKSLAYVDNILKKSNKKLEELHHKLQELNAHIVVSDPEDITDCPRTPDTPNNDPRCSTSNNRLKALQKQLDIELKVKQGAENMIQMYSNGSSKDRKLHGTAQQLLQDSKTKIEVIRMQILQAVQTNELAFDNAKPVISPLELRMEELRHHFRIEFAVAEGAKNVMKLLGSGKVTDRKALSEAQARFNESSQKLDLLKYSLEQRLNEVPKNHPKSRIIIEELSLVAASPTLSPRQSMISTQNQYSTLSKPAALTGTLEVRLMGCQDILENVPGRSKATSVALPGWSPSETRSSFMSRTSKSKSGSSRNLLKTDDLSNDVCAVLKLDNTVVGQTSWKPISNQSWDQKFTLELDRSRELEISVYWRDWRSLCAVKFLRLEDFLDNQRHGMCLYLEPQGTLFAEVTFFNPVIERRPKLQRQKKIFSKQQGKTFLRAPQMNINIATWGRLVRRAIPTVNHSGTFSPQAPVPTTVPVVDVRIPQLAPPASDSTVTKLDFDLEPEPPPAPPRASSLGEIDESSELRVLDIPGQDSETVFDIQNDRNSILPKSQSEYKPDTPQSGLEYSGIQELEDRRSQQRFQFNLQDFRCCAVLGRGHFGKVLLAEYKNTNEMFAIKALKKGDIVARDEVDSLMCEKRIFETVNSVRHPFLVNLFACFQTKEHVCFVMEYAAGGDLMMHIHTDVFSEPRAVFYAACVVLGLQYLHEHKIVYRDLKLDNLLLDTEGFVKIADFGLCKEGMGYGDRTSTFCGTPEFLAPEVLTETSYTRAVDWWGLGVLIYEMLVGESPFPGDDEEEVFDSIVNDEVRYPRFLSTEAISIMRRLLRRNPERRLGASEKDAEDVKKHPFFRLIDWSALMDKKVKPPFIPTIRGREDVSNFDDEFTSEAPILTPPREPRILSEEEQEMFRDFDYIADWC
VRK2 (human), sequence (Q86Y07 whole entry, looked up): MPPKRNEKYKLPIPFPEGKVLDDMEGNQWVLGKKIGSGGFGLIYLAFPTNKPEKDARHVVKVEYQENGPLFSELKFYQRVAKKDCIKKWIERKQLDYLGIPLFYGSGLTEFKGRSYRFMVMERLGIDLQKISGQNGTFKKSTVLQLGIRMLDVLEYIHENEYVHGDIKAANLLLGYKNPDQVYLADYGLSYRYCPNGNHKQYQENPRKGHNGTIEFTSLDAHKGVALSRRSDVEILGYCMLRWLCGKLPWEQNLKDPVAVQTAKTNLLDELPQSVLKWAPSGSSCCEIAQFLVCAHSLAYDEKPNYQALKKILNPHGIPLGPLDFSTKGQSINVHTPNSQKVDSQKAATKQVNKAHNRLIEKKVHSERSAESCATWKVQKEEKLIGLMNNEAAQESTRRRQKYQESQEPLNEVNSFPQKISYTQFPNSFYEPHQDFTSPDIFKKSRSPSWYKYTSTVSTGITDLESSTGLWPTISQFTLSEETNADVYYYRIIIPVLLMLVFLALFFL
FYN (human), sequence (P06241 whole entry, looked up): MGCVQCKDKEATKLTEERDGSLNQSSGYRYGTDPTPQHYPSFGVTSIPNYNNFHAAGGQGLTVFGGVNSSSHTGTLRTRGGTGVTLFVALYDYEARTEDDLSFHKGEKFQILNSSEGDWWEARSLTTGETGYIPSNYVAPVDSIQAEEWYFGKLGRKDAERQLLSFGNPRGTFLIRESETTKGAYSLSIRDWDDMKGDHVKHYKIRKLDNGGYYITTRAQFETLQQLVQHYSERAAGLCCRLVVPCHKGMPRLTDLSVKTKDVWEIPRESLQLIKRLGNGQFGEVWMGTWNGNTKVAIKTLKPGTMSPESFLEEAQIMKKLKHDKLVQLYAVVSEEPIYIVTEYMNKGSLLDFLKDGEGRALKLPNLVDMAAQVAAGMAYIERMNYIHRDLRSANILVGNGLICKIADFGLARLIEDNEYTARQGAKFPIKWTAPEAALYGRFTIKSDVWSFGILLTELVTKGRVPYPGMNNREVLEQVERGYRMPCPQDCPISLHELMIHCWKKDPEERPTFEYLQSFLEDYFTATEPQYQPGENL
CSK (human), sequence (P41240 whole entry, looked up): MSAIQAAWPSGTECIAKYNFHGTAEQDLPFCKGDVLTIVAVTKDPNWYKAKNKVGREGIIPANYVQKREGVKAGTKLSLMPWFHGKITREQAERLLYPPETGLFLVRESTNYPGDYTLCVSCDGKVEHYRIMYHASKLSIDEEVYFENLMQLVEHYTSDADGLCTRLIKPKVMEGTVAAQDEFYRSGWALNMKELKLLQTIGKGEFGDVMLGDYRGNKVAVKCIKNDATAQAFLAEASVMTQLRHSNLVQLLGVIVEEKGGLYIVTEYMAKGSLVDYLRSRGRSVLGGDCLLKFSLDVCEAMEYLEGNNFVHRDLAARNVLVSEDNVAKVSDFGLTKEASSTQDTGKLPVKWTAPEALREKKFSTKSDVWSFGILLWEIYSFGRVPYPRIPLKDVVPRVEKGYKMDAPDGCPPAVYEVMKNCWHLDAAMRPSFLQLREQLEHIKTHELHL
PIK3CA (human), P42336 [M1043I], sequence (P42336 whole entry M1043I, looked up): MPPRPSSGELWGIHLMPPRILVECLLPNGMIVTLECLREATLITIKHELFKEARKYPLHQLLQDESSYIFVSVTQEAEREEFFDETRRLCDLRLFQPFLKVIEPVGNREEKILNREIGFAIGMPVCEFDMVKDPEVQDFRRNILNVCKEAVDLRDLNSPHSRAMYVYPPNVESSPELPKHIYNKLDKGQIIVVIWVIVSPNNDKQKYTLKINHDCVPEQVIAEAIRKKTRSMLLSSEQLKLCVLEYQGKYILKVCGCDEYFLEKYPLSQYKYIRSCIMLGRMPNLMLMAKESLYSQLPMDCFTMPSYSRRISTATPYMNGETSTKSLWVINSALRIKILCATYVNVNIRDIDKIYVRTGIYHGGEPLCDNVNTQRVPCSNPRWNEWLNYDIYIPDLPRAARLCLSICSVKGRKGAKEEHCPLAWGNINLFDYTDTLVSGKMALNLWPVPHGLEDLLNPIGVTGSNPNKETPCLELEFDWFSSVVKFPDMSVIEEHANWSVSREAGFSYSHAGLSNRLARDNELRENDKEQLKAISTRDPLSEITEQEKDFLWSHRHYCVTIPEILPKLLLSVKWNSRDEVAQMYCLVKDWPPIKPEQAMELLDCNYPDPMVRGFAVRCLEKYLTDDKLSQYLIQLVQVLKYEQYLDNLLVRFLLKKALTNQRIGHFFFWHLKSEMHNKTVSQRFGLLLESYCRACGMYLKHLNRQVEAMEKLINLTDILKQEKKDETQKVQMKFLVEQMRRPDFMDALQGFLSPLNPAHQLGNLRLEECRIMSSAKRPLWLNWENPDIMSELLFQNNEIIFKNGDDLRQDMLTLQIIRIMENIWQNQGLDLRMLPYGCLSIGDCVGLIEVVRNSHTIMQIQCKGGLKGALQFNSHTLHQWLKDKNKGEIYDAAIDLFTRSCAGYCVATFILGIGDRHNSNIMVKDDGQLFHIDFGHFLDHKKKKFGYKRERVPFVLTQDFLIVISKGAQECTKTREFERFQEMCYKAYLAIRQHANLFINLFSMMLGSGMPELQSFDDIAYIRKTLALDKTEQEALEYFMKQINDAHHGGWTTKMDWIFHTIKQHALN
CSNK1D (human), sequence (P48730 whole entry, looked up): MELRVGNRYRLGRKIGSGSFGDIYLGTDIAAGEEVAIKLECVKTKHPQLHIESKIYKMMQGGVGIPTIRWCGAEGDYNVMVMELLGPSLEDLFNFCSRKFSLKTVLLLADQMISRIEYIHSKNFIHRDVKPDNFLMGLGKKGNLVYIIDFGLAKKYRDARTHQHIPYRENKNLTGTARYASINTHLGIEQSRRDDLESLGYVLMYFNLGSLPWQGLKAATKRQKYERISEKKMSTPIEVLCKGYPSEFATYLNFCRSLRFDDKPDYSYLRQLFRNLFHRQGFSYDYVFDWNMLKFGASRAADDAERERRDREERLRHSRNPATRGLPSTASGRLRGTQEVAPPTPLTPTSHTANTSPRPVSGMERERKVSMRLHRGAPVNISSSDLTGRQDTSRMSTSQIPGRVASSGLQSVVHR
TLK1 (human), sequence (Q9UKI8 whole entry, looked up): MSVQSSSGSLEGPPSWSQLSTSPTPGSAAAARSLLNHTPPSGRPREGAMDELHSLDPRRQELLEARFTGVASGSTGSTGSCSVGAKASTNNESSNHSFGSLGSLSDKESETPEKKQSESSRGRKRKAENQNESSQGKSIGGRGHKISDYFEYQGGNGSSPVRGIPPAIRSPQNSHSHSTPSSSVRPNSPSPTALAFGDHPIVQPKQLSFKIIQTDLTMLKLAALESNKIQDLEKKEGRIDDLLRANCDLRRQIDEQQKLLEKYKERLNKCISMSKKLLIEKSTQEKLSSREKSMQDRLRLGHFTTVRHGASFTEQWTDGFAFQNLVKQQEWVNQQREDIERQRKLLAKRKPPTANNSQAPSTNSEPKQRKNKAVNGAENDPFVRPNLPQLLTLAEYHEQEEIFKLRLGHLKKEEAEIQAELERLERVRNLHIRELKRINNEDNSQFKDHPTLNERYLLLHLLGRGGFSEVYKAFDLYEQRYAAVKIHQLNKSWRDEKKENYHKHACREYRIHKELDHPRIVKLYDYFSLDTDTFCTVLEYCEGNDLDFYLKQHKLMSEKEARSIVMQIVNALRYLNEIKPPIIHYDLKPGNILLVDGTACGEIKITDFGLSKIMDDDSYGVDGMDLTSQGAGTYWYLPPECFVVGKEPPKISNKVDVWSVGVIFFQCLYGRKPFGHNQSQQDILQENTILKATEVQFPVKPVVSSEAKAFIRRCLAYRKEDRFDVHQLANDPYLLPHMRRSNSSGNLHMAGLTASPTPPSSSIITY

SMILES: COc1cc2c(Nc3ccc(NC(=O)c4ccccc4)cc3)ncnc2cc1OCCCN1CCOCC1
- kinase still bound, per cent of control (ACVR2B (human)): 100%
- kinase still bound, per cent of control (AKT2 (human)): 100%
- kinase still bound, per cent of control (AKT3 (human)): 100%
- kinase still bound, per cent of control (BTK (human)): 7.3%
- kinase still bound, per cent of control (CASK (human)): 100%
- kinase still bound, per cent of control (CDK15 (human)): 68%
- kinase still bound, per cent of control (CDKL5 (human)): 46%
- kinase still bound, per cent of control (CSK (human)): 7.9%
- kinase still bound, per cent of control (CSNK1D (human)): 71%
- kinase still bound, per cent of control (DMPK (human)): 100%
- kinase still bound, per cent of control (EGFR (human)): 0.65%
- kinase still bound, per cent of control (EPHA5 (human)): 100%
- kinase still bound, per cent of control (FGFR1 (human)): 94%
- kinase still bound, per cent of control [1]: 100%
- kinase still bound, per cent of control (FYN (human)): 55%
- kinase still bound, per cent of control (IKBKE (human)): 62%
- kinase still bound, per cent of control (IRAK3 (human)): 17%
- kinase still bound, per cent of control [2]: 62%
- kinase still bound, per cent of control (KIT (human)): 0%
- kinase still bound, per cent of control (LIMK1 (human)): 100%
- kinase still bound, per cent of control (MAP2K5 (human)): 0.3%
- kinase still bound, per cent of control (MAPK15 (human)): 100%
- kinase still bound, per cent of control (MINK1 (human)): 33%
- kinase still bound, per cent of control (MYO3B (human)): 100%
- kinase still bound, per cent of control (PAK2 (human)): 89%
- kinase still bound, per cent of control (PIK3C2B (human)): 100%
- kinase still bound, per cent of control [3]: 99%
- kinase still bound, per cent of control (PIP4K2C (human)): 53%
- kinase still bound, per cent of control (PKN2 (human)): 100%
- kinase still bound, per cent of control (PRKACB (human)): 100%
- kinase still bound, per cent of control (PTK6 (human)): 0.8%
- kinase still bound, per cent of control (RPS6KA4 KD2 (human)): 100%
- kinase still bound, per cent of control (RPS6KA6 KD1 (human)): 68%
- kinase still bound, per cent of control (SRMS (human)): 2.4%
- kinase still bound, per cent of control (TLK1 (human)): 78%
- kinase still bound, per cent of control (TNK1 (human)): 69%
- kinase still bound, per cent of control (TNNI3K (human)): 94%
- kinase still bound, per cent of control (VRK2 (human)): 100%
- kinase still bound, per cent of control (WEE2 (human)): 100%
- kinase still bound, per cent of control (ZAP70 (human)): 100%
